Test results as given in patent publication US7662767B2, “Polynucleotide intercalator interceptors and inhibitors” (Materials Evolution and Development USA, Inc., priority 2000, dated 2010).
Where “and” joins values, the source holds several entries; their conditions need not be identical. Equal entries are not always repeated. Values belong to the compound of their own block, whether it stands above or below them.

Experiments:
[1] = Optical titration (absorbance) of acridine orange with xanthines/purines, Kassoc from delta absorbance; assay type: binding; conditions: for Kassoc ± S.E.: binding affinity between acridine orange (10 μM) and compound, 5 mM HEPES pH 7.0, 25±1° C., 0 = no measurable association detected; for complex formation / binding affinity with AO: optical titration
Description: A red spectral shift in the optical adsorption maximum of AO upon the addition of a particular xanthine, indicates the possibility of a complex being formed between the two compounds. Spectral shifts can be measured by optical titrations.
Optical titrations (serial additions of various xanthines to a solution of AO) were performed on a Beckman DU-600 Scanning Spectrophotometer (Beckman Instrument Co., New York, N.Y.) using a 3 mL (1-cm light path) quartz cuvette containing 2.0 mL of a […]. The DU600 Spectrophotometer was blanked with 2 mL of a pH 7.0 buffered 5 mM HEPES solution over the full range of wavelengths to be scanned prior to sample analysis. This reduced the need to subtract the background absorbance from the HEPES buffer. Optical absorbance scans were performed over a wavelength range preferably from 400 nm to 550 nm. […] The 10 μM AO solution was scanned before the start of each titration series to quantitatively monitor any changes in the absorbance spectrum. Optical absorbance experiments were performed using aliquots varying in volume from 1:L to 20:L taken from prepared xanthine stock solutions (5 mM to 50 mM) and titrated into the cuvette containing 2.0 mL of the 10 μM AO solution. The solution in the cuvette was then thoroughly mixed by 10 seconds of shaking before scanning. All titrations were performed at room temperature (25±1° C.). The absorbance spectra were measured in 1 nm intervals and stored in digital form. Digitized scan data was converted to a Lotus Spreadsheet file (*.wk1) using a conversion program supplied by the manufacturer (Beckman Instruments Inc.) then imported into a Microsoft Excel 97™ Workbook file (*.xls) and saved in this format for further analysis. Spectral data for each titration was combined and expressed in graphic form (Excel™) (X-axis=wavelength in nm; Y-axis=optical absorbance) for each xanthine titrated with AO. […] Adjusted absorption values were plotted and compared to spectra from non-complexed AO. This allowed for the visualization of an expected spectral shift that occurs when AO forms a complex with a xanthine.
The association constant, Kassoc, may be used to analyze the binding ability of modified xanthines to DNA intercalators. The association constant may be calculated based upon a differential shift in the absorbance spectrum. When the presence of the xanthine caused a spectral shift, a difference absorbance plot or delta plot was obtained. Delta plots were constructed by subtracting the adjusted absorption spectrum of AO in the presence of the xanthine from the initial spectrum of AO alone at each wavelength and for each aliquot of the titration. This procedure allowed for the creation of difference absorption values or delta absorption values. Delta absorption values obtained in this manner (Y-axis=delta absorption) were plotted against wavelength in nm (X-axis). The appearance of a single isobestic point was indicative of only two species present in solution, AO, and an AO complex. Graphic representation allowed for the selection of a wavelength with the maximum sensitivity for determining the association constant. This wavelength was characterized by the greatest positive response in delta absorbance values observed upon addition of each aliquot of xanthine to the AO solution. The AO-xanthine association or binding constant was determined by the following equilibrium expression: I+X≡IX EQUATION 1: […]
Where I represents the intercalator (AO), X represents the interceptor molecule (xanthine), and IX represents the AO-xanthine complex, respectively.

[2] = system: chicken erythrocyte nuclear chromatin; test: Blocking of acridine orange intercalation into chicken erythrocyte nuclear chromatin, fluorescence microscopy; design: key: 0: no blocking effect; 1: slight blocking; 2: moderate blocking; 3: almost total blocking (very slight green fluorescence detectable); 4: complete blockage (no green fluorescence detectable); conditions: 10 μM AO
Description: Microscope slides coated with chicken erythrocyte were stained with 10 μM AO at three separate areas on the microscope slide as described above. Slides were exposed to […] different xanthies at four different molar ratios for three different periods of time. The xanthines, theophylline, caffeine, 1,3,7,9-tetramethyl uric acid, and aminophylline, were prepared with 10 μM AO at molar ratios of 50:1, 500:1, 2500:1, 5000:1 xanthine to AO in distilled water. Microscope slides coated with chicken erythrocytes were exposed to a mixture of xanthine/AO at each molar ratio for periods of 10 min, 1 min, and 10 seconds under static (non-agitated) conditions. […] Following exposure to the xanthine/AO or to the DNA/AO solutions, the slides were rinsed in distilled water, allowed to dry at room temperature, examined by fluorescence microscopy, and the color of the nuclei recorded. Results were recorded as follows: 0=no blocking effect; 1=slight blocking; 2=moderate blocking; 3=almost total blocking (very slight green fluorescence detectable); 4=complete blockage (no green fluorescence detectable).
In the implementation shown in Table 4-2, the relative intensity of the green fluorescent color ([…]) utilizing a red blocking filter (≧600 nm) was used as the indicator of the intensity of staining. The molar ratio is expressed as the ratio of xanthine concentration to 10 μM AO. Results were recorded as follows: 0=no blocking effect; 1=slight blocking; 2=moderate blocking; 3=almost total blocking (very slight green fluorescence detectable); 4=complete blockage (no green fluorescence detectable). *Kassoc values for the xanthines are taken from Table 2-1 and the Kassoc values for DNA were taken from Table 3-2.

[3] = system: chicken erythrocyte nuclear chromatin; test: Removal of acridine orange from stained chicken erythrocyte nuclear chromatin by xanthine rinse, fluorescence microscopy; conditions: for Nuclear color, Stain: before xanthine rinse; for Nuclear color, Re-stain: re-stained after xanthine rinse; for Nuclear color, After Rinse: xanthine rinse 50 mM, 1 hour, static
Description: Experiments were conducted to determine whether xanthines with known binding affinities to AO could compete with nuclear DNA for binding to AO and, therefore, be able to remove AO from its intercalation position within nuclear chromatin. Fluorescence microscopy was used to observe the fluorescent color produced by the AO-DNA complex following the staining of chicken erythrocyte nuclear chromatin with AO at both 5 μM and 5 mM.
Microscope slides smeared with chicken erythrocytes were stained with either 5 μM or 5 mM AO for a period of 30 minutes followed by three 10 second rinses in distilled water before drying at room temperature. Slides were then examined by fluorescence microscopy using a, Zeiss Model 63 Microscope with a xenon source fluorescent emitter. In some instances, a blocking filter was used to filter out fluorescence emission in the red and higher wavelengths. Photomicrographs were taken with Kodak Gold 35 mm ASA 1600 speed film, developed and color prints made. Comparative photomicrographs were taken at the same magnification and at the same exposure time. Selected photomicrographs were digitally scanned (Hewitt-Packard, Model 4L Scanner, Palo Alto, Calif.) and stored on 100 MB ZIP cartridges.
Slides were again examined by fluorescence microscopy and fluorescence color of the nuclei recorded. Slides were again stained with 5 mM AO then re-examined by fluorescence microscopy and fluorescence color of the nuclei recorded.
In the example shown in Table 4-3, the chicken erythrocytes were smeared and dried on a microscope slide prior to exposure to the AO solution for 30 minutes followed by water rinses to remove excess AO. Following drying, each slide was observed under fluorescence microscopy then placed in one of the xanthine solutions (50 ml volume) for 1 hour under static conditions, rinsed with water, then dried prior to being observed by fluorescence microscopy without a red blocking filter. Finally, each slide was restained following the initial staining procedures and again observed by fluorescence microscopy. Kassoc values are taken from Table 2-1 and are expressed in M^−1.

[4] = Table 2-2, Kassoc value with acridine orange (this report)
[5] = Table 4-2, in parentheses under compound, taken from Table 2-1
[6] = Table 4-3, taken from Table 2-1
[7] = Xanthine/AO molar ratio 5000:1, exposure 10 min
[8] = molar ratio 50:1, exposure 10 sec
[9] = molar ratio 50:1, exposure 1 min
[10] = molar ratio 50:1, exposure 10 min
[11] = molar ratio 500:1, exposure 10 sec
[12] = molar ratio 500:1, exposure 1 min
[13] = molar ratio 500:1, exposure 10 min
[14] = molar ratio 2500:1, exposure 10 sec
[15] = molar ratio 2500:1, exposure 1 min
[16] = molar ratio 2500:1, exposure 10 min
[17] = molar ratio 5000:1, exposure 10 sec
[18] = molar ratio 5000:1, exposure 1 min

SMILES: Cn1c(=O)c2[nH]cnc2n(C)c1=O [1,3-dimethyl xanthine (theophylline), 1,3-dimethyl xanthine]
Kassoc [1, 4]: 157 M⁻¹
Kassoc [1, 5]: (157) M^−1
Kassoc [1, 6]: 161 M⁻¹
Kassoc ± S.E. [1]: 160.8 M⁻¹
blocking of AO intercalation [2, 7]: 0
blocking of AO intercalation [2, 8]: 0
blocking of AO intercalation [2, 9]: 0
blocking of AO intercalation [2, 10]: 0
blocking of AO intercalation [2, 11]: 0
blocking of AO intercalation [2, 12]: 0
blocking of AO intercalation [2, 13]: 0
blocking of AO intercalation [2, 14]: 0
blocking of AO intercalation [2, 15]: 0
blocking of AO intercalation [2, 16]: 0
blocking of AO intercalation [2, 17]: 0
blocking of AO intercalation [2, 18]: 0
Nuclear color, Stain ([3]; AO [5 μM] 30 minutes): Green
Nuclear color, Re-stain ([3]; AO [5 μM]): Green
Nuclear color, After Rinse ([3]; AO [5 μM]): Green
Nuclear color, Stain ([3]; AO [5 mM] 30 minutes): Red
Nuclear color, Re-stain ([3]; AO [5 mM]): Red
Nuclear color, After Rinse ([3]; AO [5 mM]): Red

SMILES: c1ncc2[nH]cnc2n1 [Purine]
Kassoc ± S.E. [1]: ~2 M⁻¹

SMILES: Clc1ncnc2nc[nH]c12 [6-chloro purine]
Kassoc ± S.E. [1]: 0 M⁻¹

SMILES: Cn1c(=O)[nH]c2[nH]c(=O)[nH]c2c1=O [1-methyl-8-oxy xanthine]
Kassoc ± S.E. [1]: 0 M⁻¹
complex formation / binding affinity with AO [1]: failed to exhibit any significant binding affinity for AO

SMILES: Cc1ncnc2nc[nH]c12 [6-methyl purine]
Kassoc ± S.E. [1]: 0 M⁻¹

complex formation / binding affinity with AO [1]: little or no affinity to complex with AO
SMILES: Cn1c(=O)[nH]c2[nH]c(=O)[nH]c(=O)c21 [7-methyl-8-oxy xanthine]
Kassoc ± S.E. [1]: 0 M⁻¹

complex formation / binding affinity with AO [1]: little or no affinity to complex with AO
SMILES: Cn1c(=O)[nH]c(=O)c2[nH]cnc21 [3-methyl xanthine]

SMILES: Cn1c(=O)c2[nH]c(=O)[nH]c2n(C)c1=O [1,3-dimethyl-8-oxy xanthine]
Kassoc ± S.E. [1]: 38.5 M⁻¹ and 38.5 ± 2.2 M⁻¹
complex formation / binding affinity with AO [1]: failed to exhibit any significant binding affinity for AO

SMILES: Cn1c(=O)c2c(n(C)c1=O)n(C)c(=O)n2C [1,3,7,9-tetramethyl-8-oxy xanthine]
Kassoc [1, 4]: 552 M⁻¹
Kassoc [1, 5]: (552) M^−1
Kassoc [1, 6]: 552 M⁻¹
Kassoc ± S.E. [1]: 551.5 ± 9.0 M⁻¹
Kassoc ± S.E. ([1]; listed as 1,3,7,9-tetramethyl uric acid): 552 M⁻¹
blocking of AO intercalation [2, 7]: 2
blocking of AO intercalation [2, 8]: 0
blocking of AO intercalation [2, 9]: 0
blocking of AO intercalation [2, 10]: 0
blocking of AO intercalation [2, 11]: 0
blocking of AO intercalation [2, 12]: 0
blocking of AO intercalation [2, 13]: 0
blocking of AO intercalation [2, 14]: 0
blocking of AO intercalation [2, 15]: 1
blocking of AO intercalation [2, 16]: 1
blocking of AO intercalation [2, 17]: 2
blocking of AO intercalation [2, 18]: 2
effect of xanthine rinse on fluorescence of AO stained nuclear chromatin ([3]; 50 mM xanthine rinse): removal of most, if not all, green and red color
Nuclear color, Stain ([3]; AO [5 μM] 30 minutes): Green
Nuclear color, Re-stain ([3]; AO [5 μM]): Green
Nuclear color, After Rinse ([3]; AO [5 μM]): None
Nuclear color, Stain ([3]; AO [5 mM] 30 minutes): Red
Nuclear color, Re-stain ([3]; AO [5 mM]): Red
Nuclear color, After Rinse ([3]; AO [5 mM]): None

complex formation / binding affinity with AO [1]: little or no affinity to complex with AO
SMILES: Cn1cnc2[nH]c(=O)[nH]c(=O)c21 [7-methyl xanthine]
Kassoc ± S.E. [1]: 0 M⁻¹

SMILES: Cn1c(=O)[nH]c2nc[nH]c2c1=O [1-methyl xanthine]
Kassoc [1, 4]: 79^a M^−1
Kassoc ± S.E. [1]: 79.2 ± 2.0 M⁻¹
complex formation / binding affinity with AO [1]: failed to exhibit any significant binding affinity for AO

complex formation / binding affinity with AO [1]: did not complex with AO
SMILES: O=c1[nH]c(=O)c2[nH]c(=O)[nH]c2[nH]1 [uric acid (8-oxy xanthine), 8-oxy xanthine]
Kassoc ± S.E. [1]: 0 M⁻¹

SMILES: Cn1c(=O)[nH]c2ncn(C)c2c1=O [1,7-dimethyl xanthine]
Kassoc [1, 4]: 155 M⁻¹
Kassoc ± S.E. [1]: 155.3 ± 3.1 M⁻¹

SMILES: COc1nc(N)nc2nc[nH]c12 [2-amino-6-methoxy purine]
Kassoc ± S.E. [1]: ~2 M⁻¹

SMILES: Cn1c(=O)c2[nH]c(Cl)nc2n(C)c1=O [1,3-dimethyl-8-chloro xanthine]
Kassoc ± S.E. [1]: 412.5 ± 11.7 M⁻¹
complex formation / binding affinity with AO [1]: failed to exhibit any significant binding affinity for AO

SMILES: Cn1cnc2ncnc-2c1N [1-methyl-6-amino purine]
Kassoc ± S.E. [1]: ~14 M⁻¹
